Measured values reported in patent US20030013643A1, “Prevention and treatment of streptococcal and staphylococcal infection” (priority 2000, published 2003).

What was measured:
human keratinocytes [1] = assay: Confocal microscopy of actin projections / lamellipodia in keratinocytes exposed to wild-type GAS; assay type: cell-based; details: incubation of keratinocytes with inhibitor
Method: GAS strains were 950771, an M-type 3 strain originally isolated from a child with necrotizing fasciitis, and 188, an isogenic acapsular mutant derived from 950771 (Ashbaugh, C. D., et al., (1998) J. Clin. Invest. 102, 550-560). Bacteria were cultured in Todd Hewitt broth (Difco, Sparks, Md.) to early exponential phase. For preparation of polarized keratinocyte monolayers, human squamous cell carcinoma cell line, SCC13, derived from cheek epidermis (Cline, P. R. & Rice, R. H. (1983) Cancer Res. 43, 3203-3207) was cultured to confluence in serum-free keratinocyte medium (Gibco BRL, Rockville, Md.) supplemented with 50 μg/ml bovine pituitary extract, 0.1 ng/ml epidermal growth factor and 0.3 mM calcium chloride (c-SFM). Certain experiments were performed also using cell monolayers prepared from OKP7 primary human keratinocytes (Crowe et al. (1991) Differentiation 48, 199-208). […] Once confluent, the integrity of the monolayer was assessed routinely by measuring permeability to sodium fluorescein (Tchao, R. (1988) Alternative Methods in Toxicology (eds. Goldberg, A. M.) 271-283 (Ann Liebert, N.Y.) and, in some experiments, by measuring transepithelial electrical resistance (McNamara, B. P., et al. (2001) J Clin Invest 107, 621-9). […]

[2] = system: wild-type GAS, strain 950771; assay: GAS translocation through polarized human keratinocyte monolayers; assay type: cell-based, Streptococcus pyogenes; details: for blocking of translocating GAS: pre-treated 30 minutes with 2 mg/ml, compared to untreated monolayers
Method: Human keratinocytes were cultured on 3.0 μm filters to allow polarization and establishment of functional intercellular tight junctions. Cells were infected as described previously with wild-type GAS, strain 950771. To assess the ability of exogenously added HA to inhibit the translocation of GAS through the keratinocyte monolayer, cells were pre-treated for 30 minutes with either 2 mg/ml of hyaluronic acid (HA) or another acidic polysaccharide, alginate (AL), at the same concentration. Aliquots of media from the lower chamber of infected keratinocyte monolayers were cultured on blood agar plates at 1 and 2 hours after inoculation with bacteria to assess the number of translocating bacteria. […] In contrast only 20% and 25% of the wild-type bacteria were blocked by AL at 1 and 2 hours, respectively.
GAS strains were 950771, an M-type 3 strain originally isolated from a child with necrotizing fasciitis, and 188, an isogenic acapsular mutant derived from 950771 (Ashbaugh, C. D., et al., (1998) J. Clin. Invest. 102, 550-560). Bacteria were cultured in Todd Hewitt broth (Difco, Sparks, Md.) to early exponential phase. For preparation of polarized keratinocyte monolayers, human squamous cell carcinoma cell line, SCC13, derived from cheek epidermis (Cline, P. R. & Rice, R. H. (1983) Cancer Res. 43, 3203-3207) was cultured to confluence in serum-free keratinocyte medium (Gibco BRL, Rockville, Md.) supplemented with 50 μg/ml bovine pituitary extract, 0.1 ng/ml epidermal growth factor and 0.3 mM calcium chloride (c-SFM). Certain experiments were performed also using cell monolayers prepared from OKP7 primary human keratinocytes (Crowe et al. (1991) Differentiation 48, 199-208). Keratinocytes were seeded at 5×10^5 cells per well onto polycarbonate Transwell membrane supports (12-well plates, 3.0 μm pore size; Costar, Corning, N.Y.) and cultured for 6-10 days at 37° C. with 5% CO2 in c-SFM, with daily medium changes. Once confluent, the integrity of the monolayer was assessed routinely by measuring permeability to sodium fluorescein (Tchao, R. (1988) Alternative Methods in Toxicology (eds. Goldberg, A. M.) 271-283 (Ann Liebert, N.Y.) and, in some experiments, by measuring transepithelial electrical resistance (McNamara, B. P., et al. (2001) J Clin Invest 107, 621-9).
Keratinocyte monolayers on Transwells were inoculated with GAS at a multiplicity of infection of 10 per keratinocyte. Monolayers were incubated at 37° C. with 5% CO2. The keratinocyte medium in the upper chamber was replaced two hours after adding GAS, and the Transwell inserts containing the keratinocytes were moved to new wells containing fresh medium every 2 hours to prevent overgrowth of translocated bacteria. Translocation was assessed by quantitative cultures of medium from the lower chamber at 2 hour intervals.
As a model of the movement of GAS from the pharyngeal mucosa or skin surface into underlying tissue, GAS translocation was studied in vitro through keratinocyte monolayers. Two hours after inoculation onto the surface of a confluent keratinocyte monolayer, wild-type GAS was detected in the culture medium below the membrane support, indicating migration of the organisms through the monolayer. At each of several intervals after inoculation, approximately 20 to 100 times as many GAS were recovered below monolayers inoculated with wild-type GAS compared to those inoculated with the acapsular mutant strain.(Figure 12a). […] Compared to wild-type GAS strain 950771, the efficiency of translocation was similar for wild-type GAS strains 87-282, a highly encapsulated M-type 18 strain, and for DLS003, a poorly encapsulated M-type 3 strain. Translocation of wild-type GAS was reduced by 78% at 1 hour in experiments in which the keratinocyte monolayers were pretreated with monoclonal antibody IM7.8.1 to block interaction of the GAS capsule with CD44 . […]

human keratinocytes [3] = assay: Immunofluorescent staining of ZO-1 and E-cadherin at intercellular junctions of keratinocytes exposed to GAS; assay type: cell-based; details: pretreatment of keratinocytes; wild-type GAS
Method: Keratinocyte monolayers were fixed with 4% paraformaldehyde in phosphate buffered saline (PBS), washed, permeabilized with 0.1% Triton X-100 in PBS, then incubated with 0.5% bovine serum albumin in PBS to block non-specific binding sites prior to antibody staining. Primary antibodies included rabbit IgG antibody to GAS group A carbohydrate (ImmuCell, Portland, Me.) at 5 μg/ml, rat monoclonal anti-mouse CD44 (clone IM7.8. 1) (Schrager, H. M., et al., (1998) J. Clin. Invest. 101, 1708-1716) at 15 μg/ml, goat IgG anti-ezrin at 2 μg/ml (Santa Cruz Biotechnology, Santa Cruz, Calif.), goat IgG anti-Rac1 at 2 μg/ml (Santa Cruz Biotechnology), mouse anti-phosphotyrosine at 2 μg/ml (PY-Plus, Zymed Laboratories, Inc., San Francisco, Calif.), rabbit anti-ZO-1 at 2 μg/ml (Zymed), goat anti-E-cadherin at 2 μg/ml (Santa Cruz Biotechnology), and mouse anti-myc monoclonal antibody 9E10 (Santa Cruz Biotechnology). Secondary antibodies included, as appropriate, Texas red- or Alexa 660-conjugated anti-rabbit IgG (Molecular Probes, Eugene, Oreg.), Alexa 568-conjugated anti-rabbit, anti-goat, or anti-rat IgG (Molecular Probes), and FITC-conjugated anti-goat or anti-mouse IgG (Sigma), each diluted 1:250 in 0.5% BSA/PBS. Cellular actin was labeled with 165 nm phalloidin conjugated to Oregon green 514 or to Alexa 488 (Molecular Probes). […]

GAS [4] = assay: GAS translocation through abraded human skin equivalent; assay type: cell-based, Streptococcus pyogenes; details: pre-treated at 2 mg/ml for 1 hour; 4 hour infection period
Method: To examine GAS translocation in a model system similar to normal human skin, we utilized pseudo-organ cultures of human skin equivalent. This material is made by constructing a “dermis” that consists of human fibroblasts cultured in a collagen matrix; human foreskin keratinocytes are seeded on top of the dermal equivalent and cultured under conditions that promote differentiation into a stratified squamous epithelium with a stratum comeum. The histology of the human skin equivalent is very similar to that of normal human skin except for the absence of non-keratinocyte elements such as blood vessels and hematopoietic cells, nerves, and hair follicles. Since intact human skin is highly resistant to GAS infection, we simulated minor trauma to the superficial epidermis by abrading the surface of the skin equivalent with a cytology brush to introduce breaks in the stratum corneum. GAS were inoculated onto the surface of abraded skin equivalent that had either been pre-treated with nothing, HA, or AL at 2 mg/ml for 1 hour and translocation through the tissue was monitored by culture of GAS from the basal surface of the skin equivalent at intervals. As depicted in FIG. 10, HA inhibited translocation GAS by 91% (solid bars). In comparison the AL control prevented only 14% of bacteria from translocating through the skin equivalent during the 4 hour infection period. […]

GAS [5] = assay: GAS attachment to murine keratinocyte cell line PAM2.12 with exogenous hyaluronic acid; assay type: cell-based, Streptococcus pyogenes; details: control polysaccharide, concentration printed 1 /ml
Method: For bacterial adherence assays, keratinocytes were seeded at 10^5 cells per well in collagen-coated tissue culture wells (Nalge Nunc International, Naperville, Ill.), incubated for 3 days at 34° C. in 8% CO2, washed, and overlaid with medium containing 10^6 CFU of GAS per well. After incubation for 1 hour at 34° C. in 8% CO2 the keratinocyte monolayers were washed twice to remove nonadherent bacteria, then the number of cell-associated bacteria was determined by quantitative culture after releasing the keratinocytes with try spin and lysing them in sterile water, experiments testing the effects of exogenous hyaluronic acid on GAS adherence were performed using the mouse keratinocyte cell line, PAM 2.12 (Song, I. S. 2000, Exp. Dermatol. 9:42-52). Cells were seeded in collagen-coated tissue culture wells at 10^5 cells per well, cultured for 3 days at 37° C. in 5% CO2, then inoculated with 10^6 CFU of GAS per well in medium containing exogenous hyaluronic acid (from rooster comb, Sigma Chemicals, St. Louis, Mo.), no inhibitor, or a control polysaccharide, alginic acid, a high-molecular-weight polymer of mannuronic acid and guluronic acid (Protonal Durvillea Alginate, Pronova. Biopolymer, Inc., Portsmouth, N.H.). Cells were incubated for 45 minutes at 37° C. in 5% CO2, then processed for enumeration of adherent bacteria as described above. In experiments to test whether exogenous hyaluronic acid could promote dissociation of GAS attached to keratinocytes, GAS were allowed to attach to keratinocytes in the absence of inhibitor; after 45 minutes, the medium was removed and replaced with fresh medium containing hyaluronic acid, no inhibitor, or alginic acid. After 45 minutes of incubation, the number of adherent bacteria was enumerated as described above.
To investigate the specificity of the interaction between the GAS capsule and CD44 on epithelial cells, the ability of exogenous hyaluronic acid to compete with GAS for binding to murine keratinocytes was examined. Addition of exogenous hyaluronic acid to concentration 1 mg/ml[…], inhibited GAS attachment to the murine keratinocyte cell line PAM2.12 by >95% (P<0.03, FIG. 5). A concentration of 1 /ml alginic acid, another high molecular weight acidic polysaccharide, had no effect, supporting the hypothesis that adherence depends on a specific interaction between the GAS hyaluronic acid capsule and CD44 .
In addition to the 1 mg/ml concentration of hyaluronic acid, additional trials were performed as indicated above, with a range of concentrations of hyaluronic acid added to the cells. The concentrations tested included 4 mg/ml, 2 mg/ml, 1 mg/ml, 0.75 mg/ml, 0.5 mg/ml, 0.25 mg/ml and 0.1 mg/ml. The hyaluronic acid concentrations from 4 mg/ml to 0.25 mg/ml blocked GAS binding by greater than 70%. Hyaluronic acid concentrations from 4 mg/ml to 0.5 mg/ml blocked GAS binding by greater than 80% (FIG. 6).

Compound	formation of lamellipodia in response to GAS (human keratinocytes [1])	reduction of maximum number of translocated GAS ([2]; 250 μM, at 4 hours)	earliest detectable translocation of wild-type GAS ([2]; 250 μM, delayed from 30 min without inhibitor) [h]	redistribution (loss) of ZO-1 and E-cadherin from intercellular junctions (human keratinocytes [3])	blocking of translocating GAS ([2]; 1 hour after inoculation) [%]	blocking of translocating GAS ([2]; 2 hours after inoculation) [%]	inhibition of translocation of GAS through skin equivalent (GAS [4]) [%]	effect on GAS attachment to PAM2.12 (GAS [5])
O=c1c(-c2ccc(O)cc2)coc2cc(O)cc(O)c12 [genistein]	inhibit formation of lamellipodia	approximately 80%	1	prevented	–	–	–	–
alginic acid	–	–	–	–	20	25	14	no effect
